Experimental data: patent US10899756B2, “Phosphodiesterase inhibitors and uses thereof” (The Trustees of Columbia University in the City of New York, priority 2013, dated 2021)
Read-outs that look alike come from different tables or passages of the source.

Columns and labels:
[1] = test system: LTP in hippocampal slices of APP/PS1 mice; assay: Long-term potentiation in hippocampal slices, compound through the bath perfusion; conditions: 50 nM bath perfusion
[2] = test system: APP/PS1 mice; assay: Contextual fear conditioning (fear memory); type: in vivo
Procedure: Fear conditioning was assessed as described in B. Gong, O. V. Vitolo, F. Trinchese, S. Liu, M. Shelanski, O. Arancio, Persistent improvement in synaptic and cognitive functions in an Alzheimer mouse model after rolipram treatment, J. Clin. Invest. 114 (2004) 1624-1634; F. Trinchese, S. Liu, F. Battaglia, S. Walter, P. M. Mathews, O. Arancio, Progressive age-related development of Alzheimer-like pathology in APP/PS1 mice, Ann. Neurol. 55 (2004) 801-814; and B. Gong, Z. Cao, P. Zheng, O. V. Vitolo, S. Liu, A. Staniszewski, D. Moolman, H. Zhang, M. Shelanski, O. Arancio, Ubiquitin hydrolase Uch-L1 rescues beta-amyloid-induced decreases in synaptic function and contextual memory, Cell 126 (2006) 775-788; each herein incorporated by reference in its entirety. […] Freezing behavior, defined as the absence of movements except for respiratory excursions, was scored using Freezeview software (Med Associates, St. Albans, Vt.). Contextual fear learning was evaluated 24 hrs after training by measuring freezing responses for 5 min in the same chamber where the mice were trained. Cued fear learning was evaluated 24 hrs after contextual testing. The mice were placed in a novel context for 2 min (pre-CS test), after which they were given a CS for 3 min (CS test), and freezing behavior was measured during the first 30 sec that mimic the CS-US conditioning and the remaining 2.5 min. […]

[3] = test system: LTP in hippocampal slices of APP/PS1 mice; assay: Long-term potentiation in slices after 3 weeks daily i.p. treatment and 9-12 weeks without treatment; type: in vivo; conditions: 3 mg/kg/day i.p. for 3 weeks from 3 months of age, treatment stopped 9-12 weeks prior to testing
Procedure: Transverse hippocampal slices (400 μm) were cut with a tissue chopper (EMS, PA) and maintained in an interface chamber at 29° C. for 90 min prior to recording, as described in Vitolo et al, Proc. Natl. Acad. Sci. USA 2002, 13217-13221, herein incorporated by reference in its entirety. The extracellular bath solution consisted of 124.0 mM NaCl, 4.4 mM KCl, 1.0 mM Na2HPO4, 25.0 mM NaHCO3, 2.0 mM CaCl2, 2.0 mM MgSO4, and 10.0 mM glucose, continuously aerated with 95% O2/5% CO2 to a final pH of 7.4. Field extracellular postsynaptic responses (fEPSPs) were recorded by placing the stimulating and recording electrodes in CA1 stratum radiatum. […] Basal synaptic transmission was first assessed by plotting the stimulus voltages (V) against slopes of fEPSP to generate input-output relations. A 20-30 min baseline was first recorded every minute at an intensity that evoked a response at approximately 35% of the maximum evoked response. […] Responses were measured as fEPSP slopes expressed as percentage of baseline.
Slices from transgenic mice treated with the compound had 226.23%±6.72 potentiation compared to 164.12%±10.37 in slices from vehicle-treated transgenic mice (FIG. 3). Residual potentiation recorded during the last 5 minutes of a 2 hr recording following tetanic stimulation of the Schaffer collateral fibers at the CA3-CA1 connection.

[4] = test system: APP/PS1 mice; assay: 2-day radial arm water maze (reference memory); type: in vivo
Procedure: The radial arm water maze task, a hybrid of the classic Morris Water Maze and the radial arm land maze, was performed as described in J. Alamed, D. M. Wilcock, D. M. Diamond, M. N. Gordon, D. Morgan, Two-day radial-arm water maze learning and memory task; robust resolution of amyloid-related memory deficits in transgenic mice, Nat. Prot. 1 (2006) 1671-1679, herein incorporated by reference in its entirety. The mouse had to swim in 6 alleys (arms) radiating from a central area until it found a hidden (submerged) platform at the end of one of the arms, based on visual cues placed in the room. The first day of the protocol was a training day on which mice were trained to identify the platform location by alternating between a visible and a hidden platform in a goal arm. The final 3 trials on that day and all 15 trials on day 2 used a hidden escape platform to force mice to use spatial cues to identify the location of the goal arm. […] The number of incorrect arm entries (entries to arms with no platform) was counted. […] Failure to select an arm after 15 sec was counted as an error and the mouse was returned to the start arm. […] For data analysis, averages for each mouse were calculated using blocks of 3 trials. […]

[5] = Acute toxicity study with histology; type: in vivo; conditions: 120 or 240 mg/kg, i.p.
From the text: Brain, muscle, kidney, and liver were harvested from each mouse, and tissue from each organ was examined histologically by a board-certified pathologist for signs of toxicity.

[6] = Pharmacokinetic study, brain and plasma; type: in vivo, C57B16 mice; conditions: 25 mg/kg i.p., mice; for half-life: read-out: t½ (elimination half-life) (converted)
[7] = test system: APP/PS1 mice; assay: Preliminary studies with sildenafil in APP/PS1 mice; type: in vivo; conditions: persist beyond the administration of the inhibitor
[8] = Metabolite formation (H versus D substitution); type: in vitro ADME; conditions: substitution of H with D; instead of three
[9] = 3-4 month old APP/PS1 mice, 3 mg/kg i.p. for 3 weeks
[10] = APP/PS1 mice, 3 mg/kg/day i.p. for 3 weeks at 3-4 months, treatment stopped 9-12 weeks, examined at 6-7 months

## COc1ccc(CNc2c3c(nc4ccc(C#N)cc24)CCN(C(C)=O)C3)cc1Cl [Compound H, 2-acetyl-10-[(3-chloro-4-methoxybenzyl)amino]-1,2,3,4-tetrahydrobenzo[b][1,6]naphthyridine-8-carbonitrile]
[1]
  effect on potentiation in WT slices: no effect
[2]; [9]
  freezing, contextual fear memory 24 hrs after shock: ~30%
[2]; [10]
  freezing, contextual memory: ~40%
[3]
  residual potentiation (fEPSP slope, percentage of baseline): 226.23%±6.72
[4]; [9]
  errors in the last trial of the 2-day RAWM test: 1 to 2 errors
[4]; [10]
  errors in the 2-day RAWM test: ~1 error
[5]
  brain sections, CD45 immunostain: no signs of inflammation
  brain sections, GFAP immunostain: no signs of gliosis
  brain sections, H&E: did not show any signs of toxicity
  brain sections, LFB-PAS stain: no signs of demyelination
  kidney sections, H&E staining: no toxicity
  kidney sections, PAS staining: did not show any abnormalities in the glomerular basement membrane
  kidney sections, trichrome staining: no fibrosis
  liver sections, H&E staining: did not show any signs of toxicity
  liver sections, trichrome stain: no fibrosis or cirrhotic liver disease
  muscle sections, H&E: no signs of toxicity
  muscle sections, trichrome stain: no muscle fibrosis
  neurotoxicity in the brain: no signs of neurotoxicity
[6]; Brain
  t½ (elimination half-life): 39 min
[6]; Plasma
  t½ (elimination half-life): 64.2 min
[6]; male, C57B16, mouse, ip, Brain
  Cmax: 492 ng/g
  half-life: 39 min
[6]; male, C57B16, mouse, ip, Plasma
  half-life: 64.2 min

## CCCc1nn(C)c2c(=O)[nH]c(-c3cc(S(=O)(=O)N4CCN(C)CC4)ccc3OCC)nc12 [sildenafil]
[7]
  effects on synaptic and cognitive abnormalities: prolonged beneficial effects

## [2H]C([2H])(Nc1c2c(nc3ccc(C#N)cc13)CCN(C(C)=O)C2)c1ccc(OC)c(Cl)c1 [U]
[8]
  number of metabolites formed: 1
